Results taken from US4593104A, “2-halo-N-(azole-1-yl-methyl)-substituted acetanilides” (BASF Aktiengesellschaft, priority 1976, dated 1986).

Columns and labels:
[1] = tested on: Alopec. myosur.; test: preemergence treatment in the greenhouse, % damage; format: in vivo
Source text: (§1) The vessels employed were plastic flowerpots having a volume of 300 cm^3; the substrate was a sandy loam containing about 1.5% humus. The seeds of the test plants (see Table 1) were sown shallow, and separated according to species. In the case of Cyperus esculentus, pregerminated tubers were planted. In the preemergence treatment, the active ingredients were then immediately applied to the surface of the soil. They were suspended or emulsified in water as the vehicle, and sprayed through atomizing nozzles. After the agents had been applied, the vessels were lightly sprinkler-irrigated to set germination and growth going, and to activate the chemical agents. The vessels were then covered with transparent plastic hoods until the plants had taken root. This cover ensured uniform germination of the test plants (to the extent that this was not impaired by the chemicals), and prevented readily volatile substances from evaporating.
(§2) For postemergence treatment, the plants were first grown to a height of from 3 to 10 cm, depending on their habit, before treated. Hoods were not placed on the pots. The experiments were set up in the greenhouse, hotter areas (25° to 40° C.) being preferred for heat-loving species, and 15° to 30° C. for plants from moderate climates. The experiments were carried out for from 4 to 6 weeks. During this period the plants were tended and their reaction to the various treatments was assessed. The following tables contain the substances investigated, the application rates in kg/ha of active ingredient, and the test plant species. Assessments were made on a 0 to 100 scale, 0 denoting no damage or normal emergence, and 100 denoting no emergence or complete destruction of at least the visible plant parts.

[2] = tested on: Brassica napus; test: preemergence treatment in the greenhouse, % damage; format: in vivo; conditions: 2.0 kg/ha
Source text: as §1, §2

[3] = tested on: Bromus spp.; test: preemergence treatment in the greenhouse, % damage; format: in vivo
Source text: as §1, §2

[4] = tested on: Echin. c.g.; test: preemergence treatment in the greenhouse, % damage; format: in vivo
Source text: as §1, §2

[5] = tested on: Matric. spp.; test: preemergence treatment in the greenhouse, % damage; format: in vivo
Source text: as §1, §2

[6] = tested on: Setaria spp.; test: preemergence treatment in the greenhouse, % damage; format: in vivo
Source text: as §1, §2

[7] = tested on: Solanum nigrum; test: preemergence treatment in the greenhouse, % damage; format: in vivo
Source text: as §1, §2

[8] = tested on: Zea mays; test: preemergence treatment in the greenhouse, % damage; format: in vivo; conditions: 2.0 kg/ha
Source text: as §1, §2

[9] = tested on: Beta vulg.; test: Table 13, % damage; format: in vivo, Beta vulgaris
Source text: as §1, §2

[10] = tested on: Alopec. myosur.; test: Table 13, % damage; format: in vivo
Source text: as §1, §2

[11] = tested on: Echin c.g.; test: Table 13, % damage; format: in vivo
Source text: as §1, §2

[12] = tested on: Setar. spp.; test: Table 13, % damage; format: in vivo
Source text: as §1, §2

[13] = tested on: Cyperus ferax; test: preemergence treatment in the greenhouse, % damage; format: in vivo
Source text: as §1, §2

[14] = tested on: Glyc. max; test: preemergence treatment in the greenhouse, % damage; format: in vivo, Glycine max
Source text: as §1, §2

[15] = tested on: Beta vulg.; test: preemergence treatment in the greenhouse, % damage; format: in vivo, Beta vulgaris
Source text: as §1, §2

[16] = tested on: Amar. retro.; test: preemergence treatment in the greenhouse, % damage; format: in vivo; conditions: 0.25 kg/ha
Source text: as §1, §2

[17] = tested on: Chrys. seget.; test: preemergence treatment in the greenhouse, % damage; format: in vivo; conditions: 0.25 kg/ha
Source text: as §1, §2

[18] = tested on: Euph. gen.; test: preemergence treatment in the greenhouse, % damage; format: in vivo; conditions: 0.25 kg/ha
Source text: as §1, §2

[19] = tested on: Poa annua; test: preemergence treatment in the greenhouse, % damage; format: in vivo; conditions: 0.25 kg/ha
Source text: as §1, §2

[20] = tested on: Sorgh. halep.; test: preemergence treatment in the greenhouse, % damage; format: in vivo; conditions: 0.25 kg/ha
Source text: as §1, §2

[21] = tested on: Alopec. myosur.; test: preemergence application in the open, % damage; format: in vivo
Procedure: (§3) The experiments were carried out on small plots. The soil was a sandy loam having a pH of from 5 to 6 and containing from 1 to 1.5% humus. The treatment was preemergence, the active ingredients being applied immediately or at the latest 3 days after sowing. The crop plants were sown in rows. The weed flora was made up of the most widely varying species and was natural; the weed flora depended on the time of the year and in part on the crop (e.g., spring-germinating, summer-germinating). The substances were emulsified or suspended in water as the vehicle, and applied by means of a motor-driven plot spray mounted on a hitch. When no rain fell, the plots were watered to ensure germination and growth of the crop plants and weeds. All the experiments were run for several weeks. Over this period, assessments were made at certain intervals on the 0 to 100 scale.

[22] = tested on: Anth./Matric.; test: preemergence application in the open, % damage; format: in vivo; conditions: 0.5 kg/ha
Procedure: as §3

[23] = tested on: Brassica napus; test: preemergence application in the open, % damage; format: in vivo
Procedure: as §3

[24] = tested on: Lamium spp.; test: preemergence application in the open, % damage; format: in vivo
Procedure: as §3

[25] = tested on: Stellaria media; test: preemergence application in the open, % damage; format: in vivo
Procedure: as §3

## Cc1ccccc1N(Cn1nc(C)c(C)c1C)C(=O)CCl
[1]; 2.0 kg/ha
  % damage: 50%
[2]
  % damage: 30%
[3]; 2.0 kg/ha
  % damage: 80%
[4]; 2.0 kg/ha
  % damage: 55%
[5]; 2.0 kg/ha
  % damage: 95%
[6]; 2.0 kg/ha
  % damage: 100%
[7]; 2.0 kg/ha
  % damage: 100%
[8]
  % damage: 10%

## Cc1cccc(C)c1N(Cn1ccnc1)C(=O)CCl
[9]; appl. rate 1.0
  % damage: 0%
[10]; appl. rate 1.0
  % damage: 20%
[11]; appl. rate 1.0
  % damage: 40%
[12]; appl. rate 1.0
  % damage: 20%

## CCc1cccc(C)c1N(Cn1cc(OC)cn1)C(=O)CCl
[1]; 0.5 kg/ha
  % damage: 100%
[1]; 1.0 kg/ha
  % damage: 100%
[3]; 0.5 kg/ha
  % damage: 90%
[3]; 1.0 kg/ha
  % damage: 98%
[13]; 0.5 kg/ha
  % damage: 100%
[13]; 1.0 kg/ha
  % damage: 100%
[4]; 0.5 kg/ha
  % damage: 100%
[4]; 1.0 kg/ha
  % damage: 100%
[5]; 0.5 kg/ha
  % damage: 98%
[5]; 1.0 kg/ha
  % damage: 98%
[6]; 0.5 kg/ha
  % damage: 100%
[6]; 1.0 kg/ha
  % damage: 100%
[14]; 0.5 kg/ha
  % damage: 0%
[14]; 1.0 kg/ha
  % damage: 0%
[15]; 0.5 kg/ha
  % damage: 5%
[15]; 1.0 kg/ha
  % damage: 15%

## CCc1cccc(C)c1N(Cn1cccn1)C(=O)CCl [Compound 7]
[16]
  % damage: 88%
[3]; 0.25 kg/ha
  % damage: 95%
[17]
  % damage: 100%
[18]
  % damage: 80%
[19]
  % damage: 100%
[7]; 0.25 kg/ha
  % damage: 100%
[20]
  % damage: 75%
[21]; 0.5 kg/ha
  % damage: 70%
[21]; 1.0 kg/ha
  % damage: 85%
[22]
  % damage: 100%
[23]; 0.5 kg/ha
  % damage: 5%
[23]; 1.0 kg/ha
  % damage: 10%
[24]; 0.5 kg/ha
  % damage: 95%
[24]; 1.0 kg/ha
  % damage: 100%
[25]; 0.5 kg/ha
  % damage: 80%
[25]; 1.0 kg/ha
  % damage: 95%

## CCc1cccc(CC)c1N(Cn1cc(OC)cn1)C(=O)CCl
[1]; 1.0 kg/ha
  % damage: 99%
[1]; 2.0 kg/ha
  % damage: 99%
[3]; 1.0 kg/ha
  % damage: 98%
[3]; 2.0 kg/ha
  % damage: 98%
[13]; 1.0 kg/ha
  % damage: 100%
[13]; 2.0 kg/ha
  % damage: 100%
[4]; 1.0 kg/ha
  % damage: 100%
[4]; 2.0 kg/ha
  % damage: 100%
[5]; 1.0 kg/ha
  % damage: 90%
[5]; 2.0 kg/ha
  % damage: 98%
[6]; 1.0 kg/ha
  % damage: 100%
[6]; 2.0 kg/ha
  % damage: 100%
[14]; 1.0 kg/ha
  % damage: 0%
[14]; 2.0 kg/ha
  % damage: 0%
[15]; 1.0 kg/ha
  % damage: 10%
[15]; 2.0 kg/ha
  % damage: 15%

## COc1cnn(CN(C(=O)CCl)c2c(C)cccc2C)c1
[1]; 0.5 kg/ha
  % damage: 100%
[1]; 1.0 kg/ha
  % damage: 100%
[3]; 0.5 kg/ha
  % damage: 100%
[3]; 1.0 kg/ha
  % damage: 100%
[13]; 0.5 kg/ha
  % damage: 100%
[13]; 1.0 kg/ha
  % damage: 100%
[4]; 0.5 kg/ha
  % damage: 100%
[4]; 1.0 kg/ha
  % damage: 100%
[5]; 0.5 kg/ha
  % damage: 95%
[5]; 1.0 kg/ha
  % damage: 95%
[6]; 0.5 kg/ha
  % damage: 100%
[6]; 1.0 kg/ha
  % damage: 100%
[14]; 0.5 kg/ha
  % damage: 0%
[14]; 1.0 kg/ha
  % damage: 0%

## Cc1cccc(C)c1N(Cn1cnc(Cl)c1Cl)C(=O)CCl
[9]; appl. rate 0.5
  % damage: 0%
[9]; appl. rate 1.0
  % damage: 0%
[10]; appl. rate 0.5
  % damage: 80%
[10]; appl. rate 1.0
  % damage: 80%
[11]; appl. rate 0.5
  % damage: 100%
[11]; appl. rate 1.0
  % damage: 100%
[12]; appl. rate 0.5
  % damage: 100%
[12]; appl. rate 1.0
  % damage: 100%
